Measurements: the supplement of paper PMC10307832

What was measured:
Assay in all cases: relative viability (nuclei count vs DMSO), 5 days (fraction); higher = more cells survive
[1] = test system: COR-L 105
Procedure, shortened: (§1)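 Relative viability divides the nuclei count in treated wells by that in vehicle wells. Lung cancer cell lines were seeded in 1536-well plates, dosed by pin tool the next day, and fixed and stained after 5 days in one step with final 0.05% Triton X-100, 1% formaldehyde and 1 ug/ml Hoechst. Dosing was a single drug or a fixed anchor-drug dose plus five library-drug doses (not always all listed) in √10 steps, and values are medians of duplicate plates imaged at 4×.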

[2] = test system: COR-L23
Procedure, shortened: as §1

[3] = test system: HARA
Procedure, shortened: as §1

[4] = test system: HCC-15
Procedure, shortened: as §1

[5] = test system: HOP-62
Procedure, shortened: as §1

[6] = test system: NCI-H1355
Procedure, shortened: as §1

[7] = test system: NCI-H1395
Procedure, shortened: as §1

[8] = test system: NCI-H1734
Procedure, shortened: as §1

[9] = test system: NCI-H1755
Procedure, shortened: as §1

[10] = test system: NCI-H1792
Procedure, shortened: as §1

[11] = test system: NCI-H1793
Procedure, shortened: as §1

[12] = test system: NCI-H1993
Procedure, shortened: as §1

[13] = test system: NCI-H2009
Procedure, shortened: as §1

[14] = test system: NCI-H2170
Procedure, shortened: as §1

[15] = test system: NCI-H2228
Procedure, shortened: as §1

[16] = test system: NCI-H2347
Procedure, shortened: as §1

[17] = test system: NCI-H358
Procedure, shortened: as §1

[18] = test system: NCI-H647
Procedure, shortened: as §1

[19] = test system: NCI-H838
Procedure, shortened: as §1

[20] = test system: SK-MES-1
Procedure, shortened: as §1

[21] = test system: UMC-11
Procedure, shortened: as §1

O=c1cc(N2CCOCC2)oc2c(-c3cccc4c3sc3ccccc34)cccc12 + Cc1nc(NC(=O)N2CCC[C@H]2C(N)=O)sc1-c1ccnc(C(C)(C)C(F)(F)F)c1 [Alpelisib] (partner 2 µM)
relative viability ([1]; first compound 0.01 µM): 1.1 | relative viability ([1]; first compound 0.03162 µM): 0.933 | relative viability ([1]; first compound 0.1 µM): 0.834 | relative viability ([1]; first compound 0.3162 µM): 1.06 | relative viability ([1]; first compound 1 µM): 0.838 | relative viability ([2]; first compound 0.01 µM): 0.871 | relative viability ([2]; first compound 0.03162 µM): 0.718 | relative viability ([2]; first compound 0.1 µM): 0.922 | relative viability ([2]; first compound 0.3162 µM): 0.795 | relative viability ([2]; first compound 1 µM): 0.753 | relative viability ([3]; first compound 0.01 µM): 0.854 | relative viability ([3]; first compound 0.03162 µM): 0.789 | relative viability ([3]; first compound 0.1 µM): 0.88 | relative viability ([3]; first compound 0.3162 µM): 0.809 | relative viability ([3]; first compound 1 µM): 0.845 | relative viability ([4]; first compound 0.01 µM): 0.87 | relative viability ([4]; first compound 0.03162 µM): 0.92 | relative viability ([4]; first compound 0.1 µM): 0.971 | relative viability ([4]; first compound 0.3162 µM): 0.859 | relative viability ([4]; first compound 1 µM): 0.828 | relative viability ([5]; first compound 0.01 µM): 1.08 | relative viability ([5]; first compound 0.03162 µM): 0.958 | relative viability ([5]; first compound 0.1 µM): 1.24 | relative viability ([5]; first compound 0.3162 µM): 1.19 | relative viability ([5]; first compound 1 µM): 1.1 | relative viability ([6]; first compound 0.01 µM): 0.871 | relative viability ([6]; first compound 0.03162 µM): 0.855 | relative viability ([6]; first compound 0.3162 µM): 0.903 | relative viability ([6]; first compound 1 µM): 0.82 | relative viability ([7]; first compound 0.01 µM): 1.1 | relative viability ([7]; first compound 0.03162 µM): 0.976 | relative viability ([7]; first compound 0.1 µM): 0.989 | relative viability ([7]; first compound 0.3162 µM): 1.09 | relative viability ([7]; first compound 1 µM): 0.956 | relative viability ([8]; first compound 0.01 µM): 0.7 | relative viability ([8]; first compound 0.03162 µM): 0.727 | relative viability ([8]; first compound 0.1 µM): 0.686 | relative viability ([8]; first compound 0.3162 µM): 0.698 | relative viability ([8]; first compound 1 µM): 0.623 | relative viability ([9]; first compound 0.01 µM): 0.952 | relative viability ([9]; first compound 0.03162 µM): 0.901 | relative viability ([9]; first compound 0.1 µM): 0.984 | relative viability ([9]; first compound 0.3162 µM): 0.866 | relative viability ([9]; first compound 1 µM): 0.894 | relative viability ([10]; first compound 0.01 µM): 0.677 | relative viability ([10]; first compound 0.03162 µM): 0.628 | relative viability ([10]; first compound 0.1 µM): 0.709 | relative viability ([10]; first compound 0.3162 µM): 0.672 | relative viability ([10]; first compound 1 µM): 0.674 | relative viability ([11]; first compound 0.01 µM): 0.607 | relative viability ([11]; first compound 0.03162 µM): 0.866 | relative viability ([11]; first compound 0.1 µM): 0.7 | relative viability ([11]; first compound 0.3162 µM): 0.705 | relative viability ([11]; first compound 1 µM): 0.484 | relative viability ([12]; first compound 0.01 µM): 0.658 | relative viability ([12]; first compound 0.03162 µM): 0.741 | relative viability ([12]; first compound 0.1 µM): 0.797 | relative viability ([12]; first compound 0.3162 µM): 0.791 | relative viability ([12]; first compound 1 µM): 0.722 | relative viability ([13]; first compound 0.01 µM): 1.12 | relative viability ([13]; first compound 0.03162 µM): 1.14 | relative viability ([13]; first compound 0.1 µM): 1.18 | relative viability ([13]; first compound 0.3162 µM): 1.15 | relative viability ([13]; first compound 1 µM): 1.13 | relative viability ([14]; first compound 0.01 µM): 0.83 | relative viability ([14]; first compound 0.03162 µM): 0.782 | relative viability ([14]; first compound 0.1 µM): 0.837 | relative viability ([14]; first compound 0.3162 µM): 0.817 | relative viability ([14]; first compound 1 µM): 0.735 | relative viability ([15]; first compound 0.03162 µM): 0.928 | relative viability ([15]; first compound 0.1 µM): 0.713 | relative viability ([15]; first compound 0.3162 µM): 0.877 | relative viability ([15]; first compound 1 µM): 0.481 | relative viability ([16]; first compound 0.01 µM): 1.17 | relative viability ([16]; first compound 0.03162 µM): 1.04 | relative viability ([16]; first compound 0.1 µM): 1.04 | relative viability ([16]; first compound 0.3162 µM): 1 | relative viability ([16]; first compound 1 µM): 1.02 | relative viability ([17]; first compound 0.01 µM): 0.811 | relative viability ([17]; first compound 0.03162 µM): 0.807 | relative viability ([17]; first compound 0.1 µM): 0.841 | relative viability ([17]; first compound 0.3162 µM): 0.847 | relative viability ([17]; first compound 1 µM): 0.83 | relative viability ([18]; first compound 0.01 µM): 1.18 | relative viability ([18]; first compound 0.03162 µM): 1.2 | relative viability ([18]; first compound 0.1 µM): 1.24 | relative viability ([18]; first compound 0.3162 µM): 1.11 | relative viability ([18]; first compound 1 µM): 0.913 | relative viability ([19]; first compound 0.01 µM): 0.961 | relative viability ([19]; first compound 0.03162 µM): 0.99 | relative viability ([19]; first compound 0.1 µM): 1.03 | relative viability ([19]; first compound 0.3162 µM): 1.02 | relative viability ([19]; first compound 1 µM): 0.975 | relative viability ([20]; first compound 0.01 µM): 0.842 | relative viability ([20]; first compound 0.03162 µM): 0.839 | relative viability ([20]; first compound 0.1 µM): 0.867 | relative viability ([20]; first compound 0.3162 µM): 0.935 | relative viability ([20]; first compound 1 µM): 0.937 | relative viability ([21]; first compound 0.01 µM): 0.995 | relative viability ([21]; first compound 0.03162 µM): 1.01 | relative viability ([21]; first compound 0.1 µM): 0.986 | relative viability ([21]; first compound 0.3162 µM): 0.979 | relative viability ([21]; first compound 1 µM): 0.872
